Source: patent US4652638A, “3-O-acyl-4"-deoxydesmycosin derivatives” (Toyo Jozo Kabushiki Kaisha, priority 1983, dated 1987)
Converted amounts (≈) assume the structure as drawn. Where two headings read alike, the source gives them in different places.

Legend:
Assay in all cases: MIC (minimum inhibitory concentration)
Format in all cases: cell-based
[1] = tested on: Staphylococcus epidermidis sp-al-1; details: SPAL1
[2] = tested on: Staphylococcus aureus ATCC 6538P; details: ATCC6538P
[3] = tested on: Micrococcus flavus ATCC 10240; details: ATCC10240
[4] = tested on: Klebsiella pneumoniae ATCC 10031; details: ATCC10031
[5] = tested on: Salmonella enteritidis Gaertner; details: Salmonella enterica
Escherichia coli B = tested on: Escherichia coli B
[6] = tested on: Pseudomonas aeruginosa IAM 1095; details: IAM1095
Shigella sonnei E33 = tested on: Shigella sonnei E33
[7] = tested on: Escherichia coli NIHJ-JC2; details: NIHJJC2
[8] = tested on: Staphylococcus aureus MS353 C36; details: MS353C36
Salmonella typhosa H901 = details: Salmonella enterica
[9] = tested on: Staphylococcus aureus 0119*
[10] = tested on: Streptococcus pyogenes N.Y.5
[11] = tested on: Staphylococcus aureus 0127*
Sarcina lutea ATCC 9341 = details: Micrococcus luteus, ATCC9341
[12] = tested on: Corynebacterium diphtheriae P.Y.8
Serratia marcescens = tested on: Serratia marcescens
[13] = tested on: Shigella flexineri type 3a; details: TYPE3A
[14] = tested on: Streptococcus pyogenes 1022*
Proteus vulgaris OX19 = tested on: Proteus vulgaris OX19
[15] = tested on: Streptococcus agalaactiae 1020
[16] = tested on: Streptococcus faecalis 1501; details: Enterococcus faecalis
[17] = tested on: Staphylococcus aureus MS353
[18] = tested on: Bacillus subtilis ATCC 6633; details: ATCC6633
[19] = tested on: Staphylococcus aureus MS353 A0*; details: * clinical isolate, macrolide-resistant bacteria A group
[20] = Staphylococcus epidermidis sp-al-1, read-out: MIC
[21] = Micrococcus flavus ATCC 10240, read-out: MIC
[22] = Klebsiella pneumoniae ATCC 10031, read-out: MIC
[23] = Salmonella enteritidis Gaertner, read-out: MIC
[24] = Escherichia coli B, read-out: MIC
[25] = Pseudomonas aeruginosa IAM 1095, read-out: MIC
[26] = Escherichia coli NIHJ-JC2, read-out: MIC
[27] = Staphylococcus aureus 0119, * clinical isolate, macrolide-resistant bacteria A group, read-out: MIC
[28] = Sarcina lutea ATCC 9341, read-out: MIC
[29] = Streptococcus pyogenes 1022, * clinical isolate, macrolide-resistant bacteria A group, read-out: MIC
[30] = Streptococcus agalaactiae 1020, read-out: MIC
[31] = Streptococcus faecalis 1501, read-out: MIC
[32] = Bacillus subtilis ATCC 6633, read-out: MIC

Row | Compound | MIC [1, 20] | MIC [2] | MIC [3, 21] | MIC [4, 22] | MIC [5, 23] | MIC (Escherichia coli B; [24]) | MIC [6, 25] | MIC (Shigella sonnei E33) | MIC [7, 26] | MIC [8] | MIC (Salmonella typhosa H901; TYPHOSA) | MIC [10] | MIC (Sarcina lutea ATCC 9341; [28]) | MIC (Serratia marcescens; read-out: MIC) | MIC [13] | MIC (Proteus vulgaris OX19; read-out: MIC) | MIC [15, 30] | MIC [16, 31] | MIC [17] | MIC [18, 32] | also measured
1 | CCCC(=O)OC1CC(=O)OC(CC)C(COC2OC(C)CC(OC)C2OC)C=C(C)C=CC(=O)C(C)CC(CC=O)C(OC2OC(C)C(O)C(N(C)C)C2O)C1C (stereo not drawn) [Example 3, 3-O-butyryl-4"-deoxydesmycosin] | ≤ 0.05 µg/mL | 0.4 µg/mL (≈ 0.484 µM) | ≤ 0.05 µg/mL | 25 µg/mL (≈ 30.3 µM) | > 100 µg/mL | > 100 µg/mL | > 100 µg/mL | > 100 µg/mL | > 100 µg/mL | 0.2 µg/mL (≈ 0.242 µM) | > 100 µg/mL | ≤ 0.05 µg/mL | ≤ 0.05 µg/mL | > 100 µg/mL | 50 µg/mL (≈ 60.5 µM) | 50 µg/mL (≈ 60.5 µM) | 0.1 µg/mL (≈ 0.121 µM) | 0.2 µg/mL (≈ 0.242 µM) | 0.4 µg/mL (≈ 0.484 µM) | 0.1 µg/mL (≈ 0.121 µM) | MIC [9, 27]: 25 µg/mL (≈ 30.3 µM); MIC ([11]; Staphylococcus aureus 0127, * clinical isolate, macrolide-resistant bacteria A group, read-out: MIC): 25 µg/mL (≈ 30.3 µM); MIC ([12]; read-out: MIC): ≤ 0.05 µg/mL; MIC [14, 29]: 12.5 µg/mL (≈ 15.1 µM)
2 | CCC1OC(=O)CC(OC(=O)Cc2ccccc2)C(C)C(OC2OC(C)C(O)C(N(C)C)C2O)C(C)CC(C)C(=O)C=CC(C)=CC1COC1OC(C)CC(OC)C1OC (stereo not drawn) [Example 10, 3-O-phenylacetyl-19-deformyl-4"-deoxydesmycosin] | – | 0.1 µg/mL (≈ 0.118 µM) | – | – | – | – | – | > 100 µg/mL | – | 0.1 µg/mL (≈ 0.118 µM) | – | ≤ 0.05 µg/mL | – | – | 25 µg/mL (≈ 29.5 µM) | – | – | – | 0.1 µg/mL (≈ 0.118 µM) | – | MIC ([1]; Staphylococcus epidermidis): ≤ 0.05 µg/mL; MIC [19]: > 100 µg/mL; MIC ([3]; Micrococcus flavus): ≤ 0.05 µg/mL; MIC ([4]; Klebsiella pneumoniae): 12.5 µg/mL (≈ 14.8 µM); MIC ([5]; ENTERITIDIS): > 100 µg/mL; MIC (Escherichia coli B; Escherichia coli): > 100 µg/mL; MIC ([6]; Pseudomonas aeruginosa): > 100 µg/mL; MIC ([7]; Escherichia coli): > 100 µg/mL; MIC (Salmonella typhosa H901; Salmonella typhosa H901, read-out: MIC): > 100 µg/mL; MIC ([9]; Staphylococcus aureus): > 100 µg/mL; MIC ([11]; Staphylococcus aureus): > 100 µg/mL; MIC (Sarcina lutea ATCC 9341): ≤ 0.05 µg/mL; MIC [12]: ≤ 0.05 µg/mL; MIC (Serratia marcescens): > 100 µg/mL; MIC (Proteus vulgaris OX19): 100 µg/mL (≈ 118 µM); MIC ([15]; Streptococcus, 1020): 0.4 µg/mL (≈ 0.473 µM); MIC [16]; 1501: 3.1 µg/mL (≈ 3.66 µM); MIC ([18]; Bacillus subtilis): 0.2 µg/mL (≈ 0.236 µM)
3 | CCC1OC(=O)CC(OC(C)=O)C(C)C(OC2OC(C)C(O)C(N(C)C)C2O)C(CC=O)CC(C)C(=O)C=CC(C)=CC1COC1OC(C)CC(OC)C1OC (stereo not drawn) [Example 1, 3-O-acetyl-4"-deoxydesmycosin] | 0.1 µg/mL (≈ 0.125 µM) | 0.4 µg/mL (≈ 0.501 µM) | ≤ 0.05 µg/mL | 25 µg/mL (≈ 31.3 µM) | > 100 µg/mL | > 100 µg/mL | > 100 µg/mL | > 100 µg/mL | > 100 µg/mL | 0.2 µg/mL (≈ 0.251 µM) | > 100 µg/mL | ≤ 0.05 µg/mL | ≤ 0.05 µg/mL | > 100 µg/mL | 50 µg/mL (≈ 62.7 µM) | 25 µg/mL (≈ 31.3 µM) | 0.1 µg/mL (≈ 0.125 µM) | 0.8 µg/mL (≈ 1 µM) | 0.2 µg/mL (≈ 0.251 µM) | 0.2 µg/mL (≈ 0.251 µM) | MIC [19]: > 100 µg/mL; MIC ([9]; Staphylococcus aureus): 100 µg/mL (≈ 125 µM); MIC ([11]; Staphylococcus aureus): > 100 µg/mL; MIC [14, 29]: 50 µg/mL (≈ 62.7 µM)
4 | CCC(=O)OC1CC(=O)OC(CC)C(COC2OC(C)CC(OC)C2OC)C=C(C)C=CC(=O)C(C)CC(CC=O)C(OC2OC(C)C(O)C(N(C)C)C2O)C1C (stereo not drawn) [Example 2, 3-O-propionyl-4"-deoxydesmycosin] | ≤ 0.05 µg/mL | 0.4 µg/mL (≈ 0.493 µM) | ≤ 0.05 µg/mL | 25 µg/mL (≈ 30.8 µM) | > 100 µg/mL | 100 µg/mL (≈ 123 µM) | 50 µg/mL (≈ 61.6 µM) | > 100 µg/mL | > 100 µg/mL | 0.2 µg/mL (≈ 0.246 µM) | > 100 µg/mL | ≤ 0.05 µg/mL | ≤ 0.05 µg/mL | > 100 µg/mL | 50 µg/mL (≈ 61.6 µM) | 50 µg/mL (≈ 61.6 µM) | 0.1 µg/mL (≈ 0.123 µM) | 0.4 µg/mL (≈ 0.493 µM) | 0.2 µg/mL (≈ 0.246 µM) | 0.1 µg/mL (≈ 0.123 µM) | MIC [19]: 12.5 µg/mL (≈ 15.4 µM); MIC [9, 27]: 25 µg/mL (≈ 30.8 µM); MIC ([11]; Staphylococcus aureus): 12.5 µg/mL (≈ 15.4 µM); MIC ([14]; Streptococcus pyogenes): 12.5 µg/mL (≈ 15.4 µM)
5 | CCC(=O)OC1CC(=O)OC(CC)C(COC2OC(C)CC(OC)C2OC)C=C(C)C=CC(=O)C(C)CC(C)C(OC2OC(C)C(O)C(N(C)C)C2O)C1C (stereo not drawn) [Example 8, 3-O-propionyl-19-deformyl-4"-deoxydesmycosin] | 0.1 µg/mL (≈ 0.128 µM) | 0.4 µg/mL (≈ 0.51 µM) | ≤ 0.05 µg/mL | 12.5 µg/mL (≈ 15.9 µM) | > 100 µg/mL | 100 µg/mL (≈ 128 µM) | > 100 µg/mL | > 100 µg/mL | > 100 µg/mL | 0.2 µg/mL (≈ 0.255 µM) | > 100 µg/mL | 0.1 µg/mL (≈ 0.128 µM) | ≤ 0.05 µg/mL | > 100 µg/mL | 100 µg/mL (≈ 128 µM) | 100 µg/mL (≈ 128 µM) | 0.4 µg/mL (≈ 0.51 µM) | 3.1 µg/mL (≈ 3.95 µM) | 0.4 µg/mL (≈ 0.51 µM) | 0.1 µg/mL (≈ 0.128 µM) | MIC [19]: > 100 µg/mL; MIC ([9]; Staphylococcus aureus): > 100 µg/mL; MIC ([11]; Staphylococcus aureus): > 100 µg/mL; MIC ([14]; Streptococcus pyogenes): > 100 µg/mL
